Experimental data reported in patent US20250082652A1, “SIGNALLING-PATHWAY INHIBITOR COMBINATIONS FOR USE IN THE TREATMENT OF CANCER DISEASES” (UNIVERSITÄT ZU KÖLN, priority 2022, published 2025).

Columns and labels:
Format in all cases: cell-based
[1] = system: human DLBCL cell line HBL1; test: Cell viability (CellTiterGlo), IKK2 inhibitors with or without Nec1s and/or ABT-199, FIG. 3 G; settings: 72 hrs; for synergistic killing of cancer cell lines (cell viability): ABT-199 combined with an IKK2 inhibitor (ML120B, BI605906 or PS1145), HBL1, FIG. 3
Experimental: (§1) Murine (A-F) and human (G) cell lines were treated with IKK2 inhibitors in the absence or presence of a RIPK1 inhibitor and/or a BCL-2 inhibitor as indicated. Cell viability was measured after 72 hrs using CellTiterGlo assay. The data points represent mean values of independent experiments. A. The murine cell line M108 was treated with the IKK2 inhibitors ML120B, BI605906 and PS1145 in the absence or presence of the RIPK1 inhibitor Nec1s (10 μM or 20 μM, as indicated) and/or the BCL-2 inhibitor ABT-199 (125 nM or 250 nM as indicated). B. The murine cell line M191 was treated with the IKK2 inhibitors ML120B, PS1145 and BI605906 in the absence or presence of the RIPK1 inhibitor Nec1s (10 μM or 20 μM, as indicated) and/or the BCL-2 inhibitor ABT-199 (125 nM or 250 nM as indicated). C. The murine cell line BSQ10 was treated with the IKK2 inhibitors ML120B, PS1145 and BI605906 in the absence or presence of the RIPK1 inhibitor Nec1s (10 μM or 20 μM, as indicated) and/or the BCL-2 inhibitor ABT-199 (125 nM or 250 nM as indicated). D. The murine cell line BSQ12.4 was treated with the IKK2 inhibitors ML120B, PS1145 and BI605906 in the absence or presence of the RIPK1 inhibitor Nec1s (10 μM or 20 μM, as indicated) and/or the BCL-2 inhibitor ABT-199 (125 nM or 250 nM as indicated). E. The murine cell line BSQ27 was treated with the IKK2 inhibitors ML120B, PS1145 and BI605906 in the absence or presence of the RIPK1 inhibitor Nec1s (10 μM or 20 μM, as indicated) and/or the BCL-2 inhibitor ABT-199 (125 nM or 250 nM as indicated). F. The murine cell line BWQ89.3 was treated with the IKK2 inhibitors ML120B, PS1145 and BI605906 in the absence or presence of the RIPK1 inhibitor Nec1s (10 μM or 20 μM, as indicated) and/or the BCL-2 inhibitor ABT-199 (125 nM or 250 nM as indicated). G. The human cell line HBL1 was treated with the IKK2 inhibitors ML120B, PS1145 and BI605906 in the absence or presence of the RIPK1 inhibitor Nec1s (10 μM or 20 μM, as indicated) and/or the BCL-2 inhibitor ABT-199 (125 nM or 250 nM as indicated).
Murine cell lines (FIG. 3 A-F) were cultured in DMEM media (Gibco) containing 10% FCS, 1% penicillin/[…] (Gibco), 6 ml L-glutamine (200 mM, Gibco), 6 ml sodium pyruvate (100 mM, Gibco), 6 ml HEPES (1 M), 6 ml non-essential amino acids (100×, Gibco), and 50 μM 2-mercaptoethanol. Cells were plated in opaque 384-well plates at a density of 100.000 cells/ml (30 μl of culture volume) and treated with the indicated compounds dissolved in DMSO using a Tecan D300e digital dispenser. The human DLBCL cell line HBL1 (FIG. 3 G) was cultured in RPMI (Gibco) containing 20% FCS (Gibco) and 1% penicillin/[…] (Gibco) and treated with the indicated compounds dissolved in DMSO using a Tecan D300e digital dispenser. Cell viability of murine and human cell lines was measured after 72 hrs using CellTiterGlo assay. The data points represent mean values of independent experiments.

[2] = system: murine cancer cell lines M108, M191, BSQ10, BSQ12.4, BSQ27, BWQ89.3; test: Cell viability (CellTiterGlo), IKK2 inhibitors with or without Nec1s and/or ABT-199, FIG. 3 A-F; settings: 72 hrs; for synergistic killing of cancer cell lines (cell viability): ABT-199 combined with an IKK2 inhibitor (ML120B, BI605906 or PS1145), FIG. 3
Experimental: as §1
(§2) The murine MBC M-191, M-190, M-108, and M-552 cell lines were generated by adopting cells from murine Myd88p.L252P/wt;R26LSL.BCL2/wt;CD19Cre/wt tumors to cell culture conditions. BSQ10, BSQ12.4 and BSQ27 are stable cell lines generated from Cd79 bp.Y195H/wt;Myd88p.L252P/wt;R26LSL.BCL2/wt;CD19Cre/wt tumors. BWQ89.3 is a stable cell line derived from a murine Prdm1flox/flox;Myd88p.L252P/wt;R26LSL.BCL2/wt;CD19Cre/wt tumor. The MBC cell lines are derived from tumors spontaneously developing in mice that B cell-specifically express the Myd88 p.L252P mutation (the murine orthologue of the human p.L265P) from the endogenous locus in combination with a strong BCL2 overexpression derived from a Rosa26 knock-in allele. Both MYD88 mutations and BCL2 overexpression are frequently found in ABC-DLBCL and Myd88p.L252P/wt;R26LSL.BCL2/wt;CD19Cre/wt animals (abbreviated MBC) develop an ABC-DLBCL-like disease with high NF-kB activation (17).
Murine cell lines (FIG. 3 A-F) were cultured in DMEM media (Gibco) containing 10% FCS, 1% penicillin/[…] (Gibco), 6 ml L-glutamine (200 mM, Gibco), 6 ml sodium pyruvate (100 mM, Gibco), 6 ml HEPES (1 M), 6 ml non-essential amino acids (100×, Gibco), and 50 μM 2-mercaptoethanol. […] Cell viability of murine and human cell lines was measured after 72 hrs using CellTiterGlo assay. […]

[3] = system: murine MBC cell lines M-108, M-191, and M-552; test: Cell viability (CellTiter-Glo), ABT-199 and/or ML120B; settings: ABT-199 combined with ML120B, 72 hours, M108, M191 and M552, FIG. 2
Experimental: The murine MBC lines M-191, M-190, M-108 and M-552 were treated with ABT-199 and/or IKK2-inhibitor ML120B at the indicated doses for 72 hours and cell viability was measured by CellTiter-Glo®. The illustrations in FIG. 2 represent two independent experiments. To test the pharmacological inhibition potential of IKK2 and BCL-2 to kill lymphoma cells, MBC M-191, M-190, M-108, and M-552 cell lines were cultured in DMEM media (Gibco) containing 10% FCS, 1% penicillin/[…] (Gibco), 6 ml L-glutamine (200 mM, Gibco), 6 ml sodium pyruvate (100 mM, Gibco), 6 ml HEPES (1 M), 6 ml non-essential amino acids (100×, Gibco), 50 μM 2-mercaptoethanol. Then, cell viability assays were used to test the pharmacological inhibition potential of IKK2 (using the inhibitor LY2409881) and BCL-2 (using the inhibitor ABT-199) to kill the MBC M-191, M-190, M-108, and M-552 cell lines. […] After an incubation time of 15 minutes, the luminescence signal was read on a plate reader (Tecan). All conditions were measured in triplicate, randomized across the plate and the DMSO concentration in each well was adjusted to maximum DMSO concentration (0.4%) in all wells, and normalized to untreated conditions. […]

[4] = system: MBC M-191, M-190, M-108, and M-552 cell lines (murine ABC-DLBCL cell lines); test: Cell viability (CellTiter-Glo), single inhibitors; settings: single agent, 72 hours, FIG. 1
Experimental: The murine MBC lines M-191, M-190, M-108 and M-552 were treated with (A) the IKK2 inhibitor LY-2409881 (0, 0.185, 0.556, 1.667, 5, 15 μM) or (B) the BCL-2 inhibitor ABT-199 (0, 11.1, 33.3, 100, 300 nM) for 72 hours and cell viability was measured by CellTiter-Glo®. The illustrations in FIG. 1 represent three independent experiments.
as §2, with “(17). […]” for “(17).”

[5] = system: IL-1β production by macrophages; test: LPS-induced production of IL-1β by macrophages treated with IKK inhibitors; settings: pharmacological RIPK1 inhibition

Row | Structure (SMILES) | synergistic killing of cancer cell lines (cell viability) [1] | synergistic killing of cancer cell lines (cell viability) [2] | synergistic killing of cancer cell lines (cell viability) [3] | also measured
1 | CCC(F)(F)c1cc(N2CCC(S(C)(=O)=O)CC2)nc2sc(C(N)=O)c(N)c12 [BI605906] | synergize to potentiate killing | synergize to potentiate killing | – | –
2 | COc1c(Cl)cc2c([nH]c3cnccc32)c1NC(=O)c1cccnc1C [ML120B, N-(6-chloro-7-methoxy-9H-beta-carbolin-8-yl)-2-methylnicotinamide] | synergize to potentiate killing | synergize to potentiate killing | synergize to potentiate killing | –
3 | CC1(C)CCC(CN2CCN(c3ccc(C(=O)NS(=O)(=O)c4ccc(NCC5CCOCC5)c([N+](=O)[O-])c4)c(Oc4cnc5[nH]ccc5c4)c3)CC2)=C(c2ccc(Cl)cc2)C1 [ABT-199] | synergize to potentiate killing | synergize to potentiate killing | synergize to potentiate killing | killing of lymphoma cells (cell viability) [4]: strong toxicity
4 | CN1C(=O)C(Cc2c[nH]c3ccccc23)NC1=S (centres unmarked) [Necrostatin-1, 5-(1H-indol-3-ylmethyl)-3-methyl-2-thioxo-4-imidazolidinone] | – | – | – | LPS-induced production of IL-1β [5]: strongly diminishes
5 | O=C(Nc1cc(Cl)cc2c1[nH]c1cnccc12)c1cccnc1 [PS1145] | synergize to potentiate killing | synergize to potentiate killing | – | –
6 | CN1C(=O)NC(Cc2c[nH]c3c(Cl)cccc23)C1=O (centres unmarked) [Nec1s, 5-((7-chloro-1H-indol-3-yl)methyl)-3-methyl-2,4-imidazolidinedione] | – | – | – | effect of simultaneous RIPK1 inhibitor treatment on the synergizing killing effect of ABT-199 and IKK2 inhibitors ([1]; Nec1s 10 μM or 20 μM, HBL1): not prevented; effect of simultaneous RIPK1 inhibitor treatment on the synergizing killing effect of ABT-199 and IKK2 inhibitors ([2]; Nec1s 10 μM or 20 μM): not prevented
